According to US20240228490A1, “HETEROCYCLIC DERIVATIVE INHIBITOR AND PREPARATION METHOD THEREFOR AND APPLICATION THEREOF” (Shanghai Hansoh Biomedical Co., Ltd., priority 2021, published 2024):

Legend:
[1] = Bidirectional permeability through Caco-2 cell model; settings: human
Experimental: (§1) 100 μL of transport buffer (HBSS containing 10 μM test compound, 0.5% BSA, and 0.5% DMSO) was added to the administration end of A to B • b. 300 μL of transport buffer (HBSS containing 0.5% BSA) was added to the receiving end of A to B • c. 300 μL of transport buffer (HBSS containing 10 μM test compound, 0.5% BSA, and 0.5% DMSO) was added to the administration end of B to A • d. 100 μL of transport buffer (HBSS containing 0.5% BSA) was added to the receiving end of B to A • e. Incubation for 2 hours • d. Samples were taken, processed and detected by mass spectrometry.
(§2) • Instrument: liquid chromatography; • Chromatographic column: Waters XSelect HSS T3 C18 (2.1*50 mm, 2.5 μm); • Mobile phase: phase A: water containing 0.1% formic acid; phase B: acetonitrile containing 0.1% formic acid.
(§3) • Instrument: API4000 liquid chromatography-mass spectrometer; • Ion source: electrospray ionization source (ESI); • Detection method: positive ion detection; • Scan mode: multiple reaction monitoring (MRM) mode.

[2] = test system: PAR in tumor tissue; assay: PD part of PK/PD study in MDA-MB-436 subcutaneous xenograft model: inhibition of PAR in tumor tissue (Western blot); assay type: in vivo, BALB/c nude mice; settings: within 24 hours after a single administration, MDA-MB-436 model
Experimental: • a. Grouping: According to the growth of the tumor, when the tumor grew to a volume of 300-500 mm^3, tumor-bearing mice were selected according to the experimental design and randomly grouped (3 mice per each time point) to start the PK/PD test. • b. Fasting: All tumor-bearing mice were fasted (with free access to water) overnight (fasting >8 hours) before the administration. • c. Administration: Except for the blank control group, a single oral administration was carried out according to the time of the experimental design, and the administration volume was 10 mL/kg. • d. Sample collection: The mice were euthanized by CO2 asphyxiation according to the time of the experimental design, and the samples were collected. One plasma sample and three tumor tissue samples were collected from each animal.
Tumor tissue collection: After the blood collection, the tumor tissue was collected. The collected tumor tissue was divided into 3 aliquots (˜0.1 g each), placed into labeled 2 mL centrifuge tubes, and stored in a refrigerator at −80±10° C. for PK or PD test.
1 mL of tumor lysis solution was added to each tube of tumor tissue sample, followed by the addition of steel beads. […]
Protein quantification was performed by BCA protein quantification kit. […]
c. […] PAR was subjected to fluorescence imaging, and Gapdh internal control was subjected to fluorescence imaging using IRDye 800 CW channel.

[3] = Pharmacokinetic assay in Balb/C mice; settings: male, mouse, plasma, po, 1 mg/kg
Experimental: Balb/C mice were used as test animals.
(§4) Male Balb/C mice (6 mice per example), purchased from Shanghai Jiesijie Laboratory Animal Co., LTD, with Certificate No.: SCXK (Shanghai) 2013-0006 N0.311620400001794.
(§5) 5 g of hydroxyethyl cellulose (HEC, CMC-Na, viscosity: 800-1200 Cps) was weighed and dissolved in 1000 mL of purified water, followed by the addition of 10 g of Tween 80. The mixture was mixed well to obtain a clear solution.
(§6) 2.05 mg of the compound was weighed and dissolved in the solution. The mixture was shaken well, crushed in a cell crusher for 1 minute, and sonicated for 15 minutes to obtain a suspension with a concentration of 0.1 mg/mL.
(§7) After an overnight fast, male Balb/C mice were administered p.o. with the test compound at a dose of 1 mg/kg and a volume of 10 mL/kg.
(§8) 0.04 mL of blood was taken from the orbit of the mouse at 0, 0.5, 1, 2, 4, 6, 8 and 24 hours after the administration. The samples were stored in EDTA-K2 tubes, and centrifuged for 6 minutes at 4° C., 6000 rpm to separate the plasma. The plasma samples were stored at −80° C. The mouse was fed 4 hours after the administration.
(§9) • Liquid chromatography condition: Shimadzu LC-20AD pump • Mass spectrometry condition: AB Sciex API 4000 mass spectrometer • Chromatographic column: phenomenex Gemiu 5 μm C18 50×4.6 mm • Mobile phase: Eluent A was 0.1% formic acid in water, and Eluent B was acetonitrile • Flow rate: 0.8 mL/min • Elution time: 0-4.0 minutes, the eluent is as follows:
(§10) The main parameters of pharmacokinetics were calculated by WinNonlin 8.2.

[4] = test system: human colorectal cancer cell line DLD-1 BRCA2−/− subcutaneous xenograft tumor; assay: In vivo pharmacodynamic study in DLD-1 BRCA2−/− subcutaneous xenograft tumor model; settings: oral, once/day, 21 days
Experimental: BALB/c nude mice, 6 to 8 weeks old, 9, purchased from the Experimental Animal Management Department of Shanghai Institute of Family Planning
The recovered cells were plated in a cell culture flask (the cell type, date, name of the experimenter and the like were labeled on the wall of the flask), and cultured in a CO2 incubator (the temperature was 37° C. and the CO2 concentration was 5% in the incubator). • b. Cells were passaged once every three days. After passage, the cells continued to be cultured in the CO2 incubator. This process was repeated until the number of cells was sufficient for the in vivo efficacy test. • c. The cultured cells were collected, and counted with an automatic cell counter. According to the counting results, the cells were resuspended with PBS to obtain a cell suspension (density: 5×10^7/mL), which was placed in an ice box for later use.
The nude mice were labeled with disposable universal ear tags for rats and mice before inoculation. • b. During the inoculation, the cell suspension was mixed well. 0.1 to 1 mL of the cell suspension was drawn with a 1 mL syringe, air bubbles were removed, and then the syringe was placed on an ice pack for later use. • c. The nude mouse was bound with the left hand. The position on the right side of the back close to the right shoulder of the nude mouse (inoculation site) was disinfected with 75% alcohol. Inoculation started after 30 seconds. • d. The test nude mice were successively inoculated (each mouse was inoculated with 0.1 mL of cell suspension).
According to the tumor growth, the tumor was measured on 10 to 18 days after the inoculation, and the tumor size was calculated.
Calculation of tumor volume: tumor volume (mm^3)=length (mm)×width (mm)×width (mm)/2 • b. The tumor-bearing mice were grouped according to their body weight and tumor size by random grouping. • c. […] Tumors were measured and the mice were weighed twice a week after the administration of test compounds began. • e. Animals were euthanized at the end of the experiment. • f. Data were processed by using softwares such as Excel.

[5] = target: PARP1 enzyme (Homo sapiens (Human), UniProt P09874); assay: Inhibitory activity on PARP1 enzyme (chemiluminescence); assay type: biochemical
Experimental: The inhibitory activity of the compounds on PARP1 enzyme was determined by the chemiluminescence method in the experiment. The experiment was carried out in a 384-well plate. Coating histones in a 384-well plate: 5×histone solution was diluted 5 folds with PBS, added to a 384-well ELISA plate (25 μL per well), and incubated at 4° C. overnight. […] A mixture of PARP reaction biotin-labeled substrate, activated DNA, 10×PARP buffer and water was added (12.5 μL per well). Compound solutions with different concentrations were formulated using the experimental buffer (10% DMSO aqueous solution containing 1.25 mM DTT). The final detection concentration started from 100 nM, with 3-fold dilution and 8 concentrations. The compound solutions were added to the reaction wells of the 384-well plate (2.5 μL per well). 2.5 μL of 10% DMSO aqueous solution containing 1.25 mM DTT was added to the positive control well and blank well (2.5 μL per well). […] The plate was centrifuged at 1000 rpm for 1 minute, and reacted at room temperature for 60 minutes. […] Streptavidin-HRP solution diluted 50 folds with Blocking buffer 3 was added (25 μL per well), and the plate was incubated at room temperature for 30 minutes. […] The luminescence reaction solution obtained by mixing ECL substrate A and ELISA ECL substrate B (1:1) was added (50 μL per well) for reaction. The chemiluminescence values were measured immediately with a BioTek Synergy H1 or Envision instrument.
The chemiluminescence values were measured with a BioTek Synergy H1 or Envision instrument. The inhibition rate was calculated, and the concentration and inhibition rate were fitted to a nonlinear regression curve using Graphpad Prism software to obtain the IC50 value.

[6] = test system: BRCA2 Knockout DLD-1 cells; assay: Inhibition of proliferation of BRCA2 Knockout DLD-1 cells (CellTiter-Glo); assay type: cell-based; settings: Homo sapiens, about 144 hours incubation
Experimental: BRCA2 Knockout DLD-1 cells were cultured using RPMI1640 culture medium containing 10% FBS to an appropriate cell density. The cells were collected, and adjusted to an appropriate cell concentration using the complete culture medium. The cell suspension was spread on a 96-well plate (90 μL per well), and placed in a 37° C., 5% CO2 incubator overnight. Compound solutions of different concentrations were formulated using DMSO and culture medium, and vehicle control was set up. The compound solutions were added to the 96-well plate (10 μL per well), and the plate was incubated in a 37° C., 5% CO2 incubator for about 144 hours. CellTiter-Glo solution was added, and the plate was shaken to mix evenly, and incubated in the dark for 10 to 30 minutes. The values were measured with a Synergy H1 or Envision microplate reader.
The inhibition rate was calculated using the luminescence signal value. The concentration and inhibition rate were fitted to a nonlinear regression curve using Graphpad Prism software to obtain the IC50 value.

[7] = in vivo; settings: male, Balb/C, mouse, po, 1 mg/kg
Experimental: Balb/C mice were used as test animals.
as §4, §5, §6, §7, §8, §9, §10

[8] = in vitro; settings: human, Caco-2
Experimental: as §1, §2, §3

PARP1 enzyme, sequence (P09874 whole entry): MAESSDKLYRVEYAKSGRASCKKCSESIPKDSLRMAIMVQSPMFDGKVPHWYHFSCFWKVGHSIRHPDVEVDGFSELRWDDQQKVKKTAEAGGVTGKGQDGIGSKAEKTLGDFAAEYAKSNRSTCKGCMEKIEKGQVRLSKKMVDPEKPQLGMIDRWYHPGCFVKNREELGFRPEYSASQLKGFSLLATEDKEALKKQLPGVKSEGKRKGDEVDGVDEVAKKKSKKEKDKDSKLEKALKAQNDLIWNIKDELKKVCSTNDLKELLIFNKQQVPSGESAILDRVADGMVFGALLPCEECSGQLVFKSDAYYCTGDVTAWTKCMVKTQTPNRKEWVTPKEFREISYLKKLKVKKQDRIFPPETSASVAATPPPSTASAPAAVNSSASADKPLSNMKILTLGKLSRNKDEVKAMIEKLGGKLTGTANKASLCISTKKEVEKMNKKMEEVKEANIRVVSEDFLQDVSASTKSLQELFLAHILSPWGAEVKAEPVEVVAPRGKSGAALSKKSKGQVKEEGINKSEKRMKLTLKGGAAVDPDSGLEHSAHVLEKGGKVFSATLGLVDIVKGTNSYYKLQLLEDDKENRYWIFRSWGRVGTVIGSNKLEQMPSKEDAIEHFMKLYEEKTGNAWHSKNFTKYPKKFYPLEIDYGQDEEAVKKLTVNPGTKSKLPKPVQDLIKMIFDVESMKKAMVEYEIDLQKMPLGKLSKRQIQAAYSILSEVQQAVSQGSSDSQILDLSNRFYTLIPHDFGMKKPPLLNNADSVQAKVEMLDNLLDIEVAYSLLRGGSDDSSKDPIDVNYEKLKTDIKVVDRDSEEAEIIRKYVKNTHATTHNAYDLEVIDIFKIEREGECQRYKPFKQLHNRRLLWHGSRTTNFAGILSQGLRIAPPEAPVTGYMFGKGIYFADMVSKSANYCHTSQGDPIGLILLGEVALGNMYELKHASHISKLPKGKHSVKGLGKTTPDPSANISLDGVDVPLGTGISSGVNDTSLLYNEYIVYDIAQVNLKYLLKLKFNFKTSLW

SMILES | Papp A→B at 2 h, 10 μM [1] [×10⁻⁶ cm/s] | Papp B→A at 2 h, 10 μM [1] [×10⁻⁶ cm/s] | Inhibition of intratumoral PAR compared with AZD5305 [2] | AUC(0-t) [3] [ng·h/mL] | Cmax [3] [ng/mL] | Tmax [3] [min] | half-life [3] [min] | Animal's body weight [4] | Tumor growth inhibition rate TGI (%) [4] [%] | IC50 [5] [nM] | IC50 [6] [nM] | efflux ratio at 2 h, 10 μM [1] | AUC(0-t) [7] [µg·h/mL] | Cmax [7] [ng/mL] | Tmax [7] [min] | half-life [7] [min] | Papp A→B at 2 h, 10 μM [8] [×10⁻⁶ cm/s] | Papp B→A at 2 h, 10 μM [8] [×10⁻⁶ cm/s] | efflux ratio at 2 h, 10 μM [8]
CCc1cc2ncc(CN3CC=C(c4ccc(C(=O)NC)nc4)CC3)cc2[nH]c1=O [Example 1, 1′-((7-Ethyl-6-oxo-5,6-dihydro-1,5-naphthyridin-3-yl)methyl)-N-methyl-1′,2′,3′,6′-tetrahydro-[3,4′-bipyridine]-6-carboxamide] | 12.8 | 19.2 | comparable | 119000 | 9930 | 60 | 414 | no significant decrease | > 90 | 0.93 | 1.2 | – | – | – | – | – | – | – | –
CCc1cc2ncc(CN3CCN(c4cnc5c(NC)nccc5c4)CC3)cc2[nH]c1=O [Example 3, 3-Ethyl-7-((4-(8-(methylamino)-1,7-naphthyridin-3-yl)piperazin-1-yl)methyl)-1,5-naphthyridin-2(1H)-one] | 7.15 | 24.1 | – | 12700 | 1570 | 30 | 222 | no significant decrease | > 90 | 0.4 | – | 3.4 | – | – | – | – | – | – | –
CCc1cc2ncc(CN3CC=C(c4ccc(C(=O)NC5CC5)nc4)CC3)cc2[nH]c1=O [Example 29, N-Cyclopropyl-1′-((7-ethyl-6-oxo-5,6-dihydro-1,5-naphthyridin-3-yl)methyl)-1′,2′,3′,6′-tetrahydro-[3,4′-bipyridine]-6-carboxamide] | 12.2 | 19 | – | 60600 | 8270 | 30 | 222 | no significant decrease | > 90 | 0.98 | 1.9 | 1.6 | – | – | – | – | – | – | –
CCc1cc2ncc(CN3CC=C(c4ccc(C(=O)NC)nc4C#N)CC3)cc2[nH]c1=O [Example 35, 2-Cyano-1′-((7-ethyl-6-oxo-5,6-dihydro-1,5-naphthyridin-3-yl)methyl)-N-methyl-1′,2′,3′,6′-tetrahydro-[3,4′-bipyridine]-6-carboxamide] | – | – | – | – | – | – | – | – | > 90 | 1 | 2.3 | – | 43.2 | 6100 | 30 | 162 | 5.19 | 15.7 | 3
CCc1cc2ncc(CN3CC=C(c4ccc(C(=O)NC)nc4F)CC3)cc2[nH]c1=O [Example 36, 1′-((7-Ethyl-6-oxo-5,6-dihydro-1,5-naphthyridin-3-yl)methyl)-2-fluoro-N-methyl-1′,2′,3′,6′-tetrahydro-[3,4′-bipyridine]-6-carboxamide] | 14.8 | 15.6 | – | 61900 | 6550 | 30 | 276 | – | – | 0.8 | 1.6 | 1.1 | – | – | – | – | – | – | –
CNC(=O)c1ccc(C2=CCN(Cc3cnc4cc(C5CC5)c(=O)[nH]c4c3)CC2)cn1 [Example 45, 1′-((7-Cyclopropyl-6-oxo-5,6-dihydro-1,5-naphthyridin-3-yl)methyl)-N-methyl-1′,2′,3′,6′-tetrahydro-[3,4′-bipyridine]-6-carboxamide] | – | – | – | – | – | – | – | – | – | 0.8 | 3.5 | – | 221 | 8980 | 60 | 1380 | 9.8 | 15.3 | 1.6
CCc1cc2ncc(CN3CC=C(c4cnc(C(=O)NC)s4)CC3)cc2[nH]c1=O [Example 46, 5-(1-((7-Ethyl-6-oxo-5,6-dihydro-1,5-naphthyridin-3-yl)methyl)-1,2,3,6-tetrahydropyridin-4-yl)-N-methylthiazole-2-carboxamide] | – | – | – | – | – | – | – | – | > 90 | 0.6 | – | – | – | – | – | – | – | – | –
CCc1cc2ncc(CN3CCN(c4cnc5c(NC)nc(C)cc5c4)CC3)cc2[nH]c1=O [Example 72, 3-Ethyl-7-((4-(6-methyl-8-(methylamino)-1,7-naphthyridin-3-yl)piperazin-1-yl)methyl)-1,5-naphthyridin-2(1H)-one] | 5.23 | 12.7 | – | – | – | – | – | – | – | – | 4.8 | 2.5 | – | – | – | – | – | – | –
